# Source: US20140023611A1 (priority 2010, published 2014)
# How the values were obtained:
# [1] = Stability of compounds in simulated gastric and intestinal fluid; format: in vitro ADME; settings: Structure (V) examples, Table 3, 3 hr; for % remaining, SGF: simulated gastric fluid; for % remaining, SIF: simulated intestinal fluid
# Method: (§1) Test compounds were incubated at 1-20 μM in simulated gastric fluid (SGF; standard USP solution with 3 mg/mL pepsin) or simulated intestinal fluid (SIF; standard USP solution with 3 mg/mL pancreatin) for 3 hr or 6 hr. HPLC-UV or HPLC-MS were used to determine test compound levels using peak area %. Results (Table 5) were reported as the percentage of test compound remaining after incubation in a given condition relative to test compound present at t=0 in the same condition.
# as §1, with “3” for “3 hr or 6”, “3)” for “5)”
# [2] = system: uptake of phosphate from the intestine; experiment: In vivo assay: bolus phosphorus (phosphate) challenge; parameters: species or system Sprague-Dawley rats; settings: Structure (V) examples, Table 4, rat; for Serum increase [Pi] mg/dL from baseline low PI state: mean ± SD
# Method: (§2) By pretreating animals with a low phosphorus diet followed by the subsequent dosing of a phosphorus bolus, serum phosphorus levels were monitored after 30 minutes as a surrogate for intestinal phosphorus absorption. […] The in vivo bolus phosphorus challenge model used here mimics this model in rats.
# Male, 7-week-old Sprague-Dawley rats (Charles-River laboratories international, Hollister, Calif.) were allowed to acclimatize for a minimum of 3 days before switching to a synthetic low-phosphorus diet (TD.85010, Harlan Teklad, Madison, Wis.) which contains 0.1% phosphorus and 0.6% calcium. At day 5, testing compounds or vehicle alone (as indicated) were orally administered at the indicated dose in a volume of 5 ml/kg, followed by a bolus gavage of monobasic sodium phosphate (1 mmol in 1 ml) 15 min after compound dosing. Serum was collected via retroorbital bleeding 30 min post phosphate bolus and phosphate levels were determined utilizing an ACE ALERA blood chemistry analyzer (Alfa Wassermann Diagnostic Technologies, West Caldwell, N.J.). […]
# Male, 7-week-old Sprague-Dawley rats (Charles-River laboratories international, Hollister, Calif.) were allowed to acclimate for a minimum of 3 days before switching to a synthetic low-phosphorus diet (TD.85010, Harlan Teklad, Madison, Wis.) which contains 0.1% phosphorus and 0.6% calcium. At day 5, testing compounds or vehicle alone (as indicated) were orally administered at the indicated dose in a volume of 5 ml/kg, followed by a bolus gavage of monobasic sodium phosphate (1 mmol in 1 ml) 15 min after compound dosing. Serum was collected via retroorbital bleeding 30 min post phosphate bolus and phosphate levels were determined utilizing an ACE ALERA blood chemistry analyzer (Alfa Wassermann Diagnostic Technologies, West Caldwell, N.J.).
# Serum was collected 30 minutes after gavage, and phosphate levels measured. […] The in vivo bolus phosphate challenge model used here mimics this model in rats.
# Male, 7-week-old Sprague-Dawley rats (Charles-River laboratories international, Hollister, Calif.) were allowed to acclimatize for a minimum of 3 days before switching to a low-phosphorus diet (TD.85010, Harlan Teklad, Madison, Wis.) which contains 0.1% phosphorus and 0.6% calcium. At day 5, testing compounds or vehicle alone (as indicated) were orally administered at the indicated dose in a volume of 5 ml/kg, followed by a bolus gavage of monobasic sodium phosphate (1 mmol in 1 ml) 15 min after compound dosing. Serum was collected via retroorbital bleeding 30 min post phosphate bolus and serum phosphate levels were determined utilizing an ACE ALERA blood chemistry analyzer (Alfa Wassermann Diagnostic Technologies, West Caldwell, N.J.).
# The representative data on effects of test compounds on serum phosphate levels are shown in Table 4 (data are expressed as mean±SD, with 6 animals per data point). The differences between groups were evaluated by one-way analysis of variance with Dunnett's post hoc tests.
# [3] = system: Uptake of Phosphorus from the Intestine; experiment: In vivo bolus phosphorus challenge; parameters: species or system rat; settings: Sprague-Dawley rats on low-phosphorus diet; oral Drug Dose 30, 15 min before phosphate bolus; serum 30 min post bolus
# Method: as §2
# Male, 7-week-old Sprague-Dawley rats (Charles-River laboratories international, Hollister, Calif.) were allowed to acclimatize for a minimum of 3 days before switching to a synthetic low-phosphorus diet (TD.85010, Harlan Teklad, Madison, Wis.) which contains 0.1% phosphorus and 0.6% calcium. At day 5, testing compounds or vehicle alone (as indicated) were orally administered at the indicated dose in a volume of 5 ml/kg, followed by a bolus gavage of monobasic sodium phosphate (1 mmol in 1 ml) 15 min after compound dosing. Serum was collected via retroorbital bleeding 30 min post phosphate bolus and phosphate levels were determined utilizing an ACE ALERA blood chemistry analyzer (Alfa Wassermann Diagnostic Technologies, West Caldwell, N.J.).
# The extent of inhibition by test compounds on the elevation of serum phosphate levels in response to the bolus of phosphorus is shown in Table 12 (data are expressed as % Inhibition, with 6-10 animals per data point). The differences between groups were evaluated by one-way analysis of variance with Dunnett's post hoc tests.
# [4] = oral 30 mg/kg, vehicle 5.0 ± 1.3
SMILES,"% remaining, SGF [1]","% remaining, SIF [1]",% Decrease in serum [Pi] ([2]; oral 10 mg/kg),Serum increase [Pi] mg/dL from baseline low PI state ([2]; oral 10 mg/kg),% Decrease in serum [Pi] ([2]; oral 30 mg/kg),"Serum increase [Pi] mg/dL from baseline low PI state [2, 4]",% Inhibition of Serum P elevation [3]
"O=C(NCCN1CCOCC1)c1cccc(C(=O)Nc2ccc(N3CCCCC3)cc2C(=O)N/N=C/c2ccc(Cl)c(C(F)(F)F)c2)c1 [Ex. 53, (E)-N^1-(2-(2-(4-chloro-3-(trifluoromethyl)benzylidene)hydrazinecarbonyl)-4-(piperidin-1-yl)phenyl)-N3-(2-morpholinoethyl)isophthalamide]",6%,107%,62%,1.9 ± 1.1 mg/dL,79%,1.1 ± 0.8 mg/dL,
"CN(CCN1CCOCC1)C(=O)c1cccc(C(=O)Nc2ccc(N3CCCCC3)cc2-c2cc(C(=O)NCc3cccc(C(F)(F)F)c3)ccn2)c1 [Example 80, N1-Methyl-N1-(2-morpholinoethyl)-N3-(4-(piperidin-1-yl)-2-(4-((3-(trifluoromethyl)benzyl)carbamoyl)pyridin-2-yl)phenyl)isophthalamide]",,,,,,,20-30%
"COCCNC(=O)CCSCc1cccc(C(=O)Nc2ccc(N3CCCCC3)cc2C(=O)N/N=C/c2ccc(Cl)c(C(F)(F)F)c2)c1 [Ex. 49, (E)-N-(2-(2-(4-chloro-3-(trifluoromethyl)benzylidene)hydrazinecarbonyl)-4-(piperidin-1-yl)phenyl)-3-((3-(2-methoxyethylamino)-3-oxopropylthio)methyl)benzamide]",21%,89%,,,24%,3.8 ± 0.8 mg/dL,
